Reference: ChEMBL document CHEMBL4387773, “Identification of potent, selective and orally bioavailable phenyl ((R)-3-phenylpyrrolidin-3-yl)sulfone analogues as RORγt inverse agonists” (Bioorg Med Chem Lett, 2019)
pEC50: −log10 of the molar value.

Assays:
[1] = Stability in mouse liver microsomes assessed as parent compound remaining after 10 mins; assay type: ADME, Microsome; settings: for remaining at 10 min: liver microsomes, read-out: Stability; for Stability: microsomes, 10 min
[2] = target: T1, Oxysterols receptor LXR-alpha (Homo sapiens, UniProt Q13133); experiment: Transactivation of human GAL4-fused LXRalpha expressed in African green monkey CV1 cells; assay type: cell-based
T1 sequence (Q13133 whole entry): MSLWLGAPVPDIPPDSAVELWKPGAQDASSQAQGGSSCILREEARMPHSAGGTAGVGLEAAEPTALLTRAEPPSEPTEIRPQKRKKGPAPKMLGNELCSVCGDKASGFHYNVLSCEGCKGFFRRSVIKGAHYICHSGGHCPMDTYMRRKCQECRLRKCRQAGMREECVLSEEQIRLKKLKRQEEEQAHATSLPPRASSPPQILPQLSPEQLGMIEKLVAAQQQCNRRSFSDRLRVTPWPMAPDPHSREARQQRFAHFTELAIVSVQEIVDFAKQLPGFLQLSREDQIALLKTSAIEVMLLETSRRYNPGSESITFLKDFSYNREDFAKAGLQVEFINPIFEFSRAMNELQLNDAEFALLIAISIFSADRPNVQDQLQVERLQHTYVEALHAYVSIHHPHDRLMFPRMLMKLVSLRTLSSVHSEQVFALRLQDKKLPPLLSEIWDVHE

[3] = target: T2, Nuclear receptor subfamily 1 group I member 2 (Homo sapiens, UniProt O75469); experiment: Transactivation of PXR (unknown origin) expressed in human HepG2 cells; assay type: cell-based
T2 sequence (O75469 whole entry): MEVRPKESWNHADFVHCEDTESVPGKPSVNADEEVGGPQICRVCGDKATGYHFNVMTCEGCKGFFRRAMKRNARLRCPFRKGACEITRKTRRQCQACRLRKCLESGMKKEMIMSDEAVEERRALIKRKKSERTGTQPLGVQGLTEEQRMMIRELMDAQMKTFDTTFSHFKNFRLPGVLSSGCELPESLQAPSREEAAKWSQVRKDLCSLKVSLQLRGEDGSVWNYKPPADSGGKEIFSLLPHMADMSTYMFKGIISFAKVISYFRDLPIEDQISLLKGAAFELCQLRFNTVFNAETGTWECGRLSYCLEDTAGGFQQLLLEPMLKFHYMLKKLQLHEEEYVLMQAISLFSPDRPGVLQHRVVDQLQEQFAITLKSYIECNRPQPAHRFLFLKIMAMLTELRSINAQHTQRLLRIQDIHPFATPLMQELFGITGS

[4] = target: T3, Nuclear receptor ROR-alpha (Homo sapiens, UniProt P35398); experiment: Inverse agonist activity at human Gal4-fused RORalpha LBD (272 to 556 residues) expressed in human Jurkat cells measured after 18 hrs by steady-glo luciferase reporter gene assay; assay type: cell-based
T3 sequence (P35398 whole entry): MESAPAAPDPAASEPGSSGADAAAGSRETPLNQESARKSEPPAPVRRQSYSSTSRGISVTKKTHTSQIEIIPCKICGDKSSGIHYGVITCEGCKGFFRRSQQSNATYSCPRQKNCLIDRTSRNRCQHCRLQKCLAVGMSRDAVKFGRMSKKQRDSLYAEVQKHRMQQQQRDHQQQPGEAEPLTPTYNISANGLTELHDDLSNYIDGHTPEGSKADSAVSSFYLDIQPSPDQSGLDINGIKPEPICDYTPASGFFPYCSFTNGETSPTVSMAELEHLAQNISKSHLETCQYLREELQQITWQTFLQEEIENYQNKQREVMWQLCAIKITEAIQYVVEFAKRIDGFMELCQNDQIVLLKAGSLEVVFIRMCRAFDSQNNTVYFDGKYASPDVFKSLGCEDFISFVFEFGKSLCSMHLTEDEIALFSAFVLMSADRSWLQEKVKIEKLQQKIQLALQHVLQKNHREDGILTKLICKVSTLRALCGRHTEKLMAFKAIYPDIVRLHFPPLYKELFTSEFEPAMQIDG

[5] = Stability in human liver microsomes assessed as parent compound remaining after 10 mins; assay type: ADME, Microsome; settings: for remaining at 10 min: liver microsomes, read-out: Stability
[6] = target: T4, Oxysterols receptor LXR-beta (Homo sapiens, UniProt P55055); experiment: Transactivation of human GAL4-fused LXRbeta expressed in African green monkey CV1 cells; assay type: cell-based
T4 sequence (P55055 whole entry): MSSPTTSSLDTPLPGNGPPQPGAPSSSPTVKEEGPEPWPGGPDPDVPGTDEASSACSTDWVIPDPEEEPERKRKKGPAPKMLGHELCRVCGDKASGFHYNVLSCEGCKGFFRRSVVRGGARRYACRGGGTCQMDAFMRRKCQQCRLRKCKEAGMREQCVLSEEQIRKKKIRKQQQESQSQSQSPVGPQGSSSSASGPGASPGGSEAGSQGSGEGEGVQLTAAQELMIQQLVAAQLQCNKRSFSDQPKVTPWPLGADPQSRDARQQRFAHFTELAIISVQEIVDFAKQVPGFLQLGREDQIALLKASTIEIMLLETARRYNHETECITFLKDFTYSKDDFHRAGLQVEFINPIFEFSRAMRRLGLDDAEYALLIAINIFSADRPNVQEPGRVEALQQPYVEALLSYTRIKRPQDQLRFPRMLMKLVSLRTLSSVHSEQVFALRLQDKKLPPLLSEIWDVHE

[7] = target: T5, Nuclear receptor ROR-beta (Homo sapiens, UniProt Q92753); experiment: Inverse agonist activity at human Gal4-fused RORbeta LBD (200 to 559 residues) expressed in human Jurkat cells measured after 18 hrs by steady-glo luciferase reporter gene assay; assay type: cell-based
T5 sequence (Q92753 whole entry): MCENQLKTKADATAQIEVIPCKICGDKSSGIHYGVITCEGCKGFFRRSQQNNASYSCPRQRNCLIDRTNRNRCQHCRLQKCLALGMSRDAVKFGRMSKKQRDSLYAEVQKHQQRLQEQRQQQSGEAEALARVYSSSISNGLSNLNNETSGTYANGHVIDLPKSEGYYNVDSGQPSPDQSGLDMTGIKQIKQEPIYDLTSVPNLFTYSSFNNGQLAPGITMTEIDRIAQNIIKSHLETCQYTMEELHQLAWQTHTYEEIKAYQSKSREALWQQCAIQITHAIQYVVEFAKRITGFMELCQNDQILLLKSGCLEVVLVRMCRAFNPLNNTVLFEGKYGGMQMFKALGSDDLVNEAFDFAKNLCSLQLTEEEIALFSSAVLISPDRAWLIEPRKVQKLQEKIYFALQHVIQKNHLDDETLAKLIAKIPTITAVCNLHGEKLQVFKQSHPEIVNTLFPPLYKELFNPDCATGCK

[8] = target: T2, Nuclear receptor subfamily 1 group I member 2; experiment: (§1) Transactivation of PXR (unknown origin) expressed in human HepG2 cells assessed as maximum receptor activation response relative to control; assay type: cell-based; settings: hepg2
[9] = target: T6, PXR (Homo sapiens, UniProt O75469); experiment: as §1; assay type: cell-based; settings: human HepG2 cells that express PXR, read-out: %max
T6 sequence (O75469 whole entry): T2 sequence (O75469 whole entry)

| remaining at 10 min [1] [%] | pEC50 [2] | pEC50 [3] | pEC50 [4] | remaining at 10 min [5] [%] | pEC50 [6] | pEC50 [7] | %max [8] [%] | Stability [1] [%] | pEC50 ([3]; hepg2) | pEC50 ([4]; jurkat) | Stability ([5]; microsomes, 10 min) [%] | pEC50 ([7]; jurkat) | Emax [9] [%] | SMILES |
| --- | --- | --- | --- | --- | --- | --- | --- | --- | --- | --- | --- | --- | --- | --- |
|  | < 5.12 |  |  |  | < 5.12 |  | 19 | 98 | < 4.30 | < 4.40 | 95 | < 4.40 |  | O=C(O)C1CCC(O)(C(=O)N2CC[C@](c3ccc(C(F)(C(F)(F)F)C(F)(F)F)cc3)(S(=O)(=O)c3ccc(F)cc3)C2)CC1 (stereo in doubt; 13) |
|  | < 5.12 | 5.14 |  |  | < 5.12 |  | 37 | 96 |  | < 4.40 |  | < 4.40 |  | O=C(C1CCS(=O)(=O)C1)N1CC[C@](c2ccc(C(F)(C(F)(F)F)C(F)(F)F)cc2)(S(=O)(=O)c2ccc(F)cc2)C1 (stereo in doubt; 33) |
| 100 | < 5.12 | < 4.30 | < 4.40 | 100 | < 5.12 | < 4.40 |  |  |  |  |  |  | 5 | NC(=O)[C@H]1CC[C@H](C(=O)N2CC[C@](c3ccc(C(F)(C(F)(F)F)C(F)(F)F)cc3)(S(=O)(=O)c3ccc(F)cc3)C2)CC1 |

More lines, now with the values behind:

| SMILES | remaining at 10 min [1] [%] | pEC50 [2] | pEC50 [3] | pEC50 [4] | remaining at 10 min [5] [%] | pEC50 [6] | pEC50 [7] | %max [8] [%] | Stability [1] [%] | pEC50 ([3]; hepg2) | pEC50 ([4]; jurkat) | Stability ([5]; microsomes, 10 min) [%] | pEC50 ([7]; jurkat) | Emax [9] [%] |
| --- | --- | --- | --- | --- | --- | --- | --- | --- | --- | --- | --- | --- | --- | --- |
| CS(=O)(=O)C1CCC(C(=O)N2CC[C@](c3ccc(C(F)(C(F)(F)F)C(F)(F)F)cc3)(S(=O)(=O)c3ccc(F)cc3)C2)CC1 (stereo in doubt; 28) | 69 | < 5.12 | 5.74 | < 4.40 | 88 | < 5.12 | < 4.40 | 29 |  |  |  |  |  |  |
| O=C(O)[C@@H]1C[C@@H]2[C@H](C1)[C@H]2C(=O)N1CC[C@](c2ccc(C(F)(C(F)(F)F)C(F)(F)F)cc2)(S(=O)(=O)c2ccc(F)cc2)C1 | 100 | < 5.12 | < 4.48 | < 4.40 | 100 | < 5.12 | < 4.40 |  |  |  |  |  |  | 43 |
| O=C([C@H]1CC[C@](F)(C(=O)O)CC1)N1CC[C@](c2ccc(C(F)(C(F)(F)F)C(F)(F)F)cc2)(S(=O)(=O)c2ccc(F)cc2)C1 | 70 | < 5.12 | < 4.77 | < 4.40 | 100 | < 5.12 | < 4.40 |  |  |  |  |  |  | 62 |
| O=C(N1CC[C@](c2ccc(C(F)(C(F)(F)F)C(F)(F)F)cc2)(S(=O)(=O)c2ccc(F)cc2)C1)C1(CO)CCS(=O)(=O)CC1 | 31 | < 5.12 | < 4.30 | < 4.40 | 75 | < 5.12 | < 4.40 |  |  |  |  |  |  | 8 |
| O=C1NC(=O)C2(CCC(C(=O)N3CC[C@](c4ccc(C(F)(C(F)(F)F)C(F)(F)F)cc4)(S(=O)(=O)c4ccc(F)cc4)C3)CC2)N1 (stereo in doubt; 24) | 81 | < 5.12 | < 4.85 | < 4.40 | 84 | < 5.12 | < 4.40 | 28 |  |  |  |  |  |  |
